Data published in patent US9452980B2, “Substituted benzamides” (Hoffmann-La Roche Inc., priority 2009, dated 2016).
Structures can show the parent of a compound that is named as a salt. Where two headings read alike, the source gives them in different places.

Assays:
rat TAAR1 = rat TAAR1 (Rattus norvegicus (Rat), UniProt Q923Y9); assay: Radioligand binding assay on rat TAAR1
Outline: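 Membranes from HEK293 cells stably expressing rat TAAR1, with Kd checked per batch by saturation. Competition with ³H-(S)-4-[(ethyl-phenyl-amino)-methyl]-4,5-dihydro-oxazol-2-ylamine, compounds 10 pM–10 μM in duplicate, 1 hr at 4 °C. Filtration then scintillation counting; nonspecific binding defined with 10 μM unlabeled ligand.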

mouse TAAR1 = mouse TAAR1 (Mus musculus (Mouse), UniProt Q923Y8); assay: Radioligand binding assay on mouse TAAR1
Outline: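 Displacement of the tritiated oxazol-2-ylamine radioligand was measured by filtration and scintillation counting after 1 h incubation at 4 °C. Test concentrations ran 10 pM–10 μM in duplicate, with 10 μM cold ligand giving nonspecific binding. The receptor source was membranes of a stable mouse TAAR1 HEK293 line.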

[1] = rat TAAR1, HEK-293 membranes, second value of cell mouse/rat, read-out: Ki (μM) rat
[2] = mouse TAAR1, HEK-293 membranes, first value of cell mouse/rat, read-out: Ki (μM) mouse

Sequence of rat TAAR1 (Q923Y9 whole entry): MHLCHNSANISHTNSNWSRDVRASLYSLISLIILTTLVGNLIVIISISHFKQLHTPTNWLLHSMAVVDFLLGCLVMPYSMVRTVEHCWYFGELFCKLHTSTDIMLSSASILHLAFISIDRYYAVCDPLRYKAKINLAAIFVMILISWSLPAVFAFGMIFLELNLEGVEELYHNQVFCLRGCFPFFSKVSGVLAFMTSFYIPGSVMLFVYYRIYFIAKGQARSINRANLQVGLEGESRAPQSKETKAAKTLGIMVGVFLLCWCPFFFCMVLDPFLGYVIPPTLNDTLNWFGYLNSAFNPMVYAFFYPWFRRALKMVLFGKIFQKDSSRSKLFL
Sequence of mouse TAAR1 (Q923Y8 whole entry): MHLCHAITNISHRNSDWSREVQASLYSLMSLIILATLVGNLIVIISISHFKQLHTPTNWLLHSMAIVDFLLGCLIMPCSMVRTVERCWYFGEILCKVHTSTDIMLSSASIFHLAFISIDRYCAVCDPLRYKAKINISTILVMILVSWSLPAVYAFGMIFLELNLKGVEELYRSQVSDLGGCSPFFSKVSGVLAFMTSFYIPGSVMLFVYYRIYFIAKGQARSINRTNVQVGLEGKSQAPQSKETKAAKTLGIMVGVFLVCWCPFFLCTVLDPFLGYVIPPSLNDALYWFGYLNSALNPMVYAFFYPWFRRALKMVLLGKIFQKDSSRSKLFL

Ki (rat TAAR1; [1]) | Ki (mouse TAAR1; [2]) | SMILES | also measured
0.0062 µM | 0.0436 µM | O=C(Nc1ccc(C2CNCCO2)cc1)c1cncc(Cl)c1 (racemic) [Example 210, (RS)-5-chloro-N-(4-(morpholin-2-yl)phenyl)nicotinamide hydrochloride] | 
0.0154 µM | 0.547 µM | O=C(NCc1ccc([C@@H]2CNCCO2)cc1)c1cccc(Cl)c1 [Example 313, (R)-3-Chloro-N-(4-(morpholin-2-yl)benzyl)benzamide hydrochloride] | 
0.0004 µM | 0.0126 µM | O=C(Nc1ccc(CCC2CCCN2)cc1)c1ccc(Cl)cc1 (racemic) [Example 142, (RS)-4-Chloro-N-[4-(2-pyrrolidin-2-yl-ethyl)-phenyl]-benzamide hydrochloride] | 
0.0074 µM | 0.011 µM | O=C(Nc1ccc(C2CCCNC2)cc1)c1ccc(OCC(F)(F)F)cn1 (racemic) [Example 191, (RS)—N-(4-(Piperidin-3-yl)phenyl)-5-(2,2,2-trifluoroethoxy)picolinamide hydrochloride] | 
0.002 µM | 0.0006 µM | CC(OC(=O)Nc1ccc(C2CCNC2)cc1)c1ccc(Cl)cc1 (racemic) [Example 127, (RS)-(4-Pyrrolidin-3-yl-phenyl)-carbamic acid (RS)-1-(4-chloro-phenyl)-ethyl ester] | 
0.0174 µM | 1.52 µM | O=C(Nc1ccc(CCC2CCNC2)cc1)c1ncc(F)cc1F (racemic) [Example 133, (RS)-3,5-Difluoro-pyridine-2-carboxylic acid [4-(2-pyrrolidin-3-yl-ethyl)-phenyl]-amide hydrochloride] | 
0.004 µM | 0.786 µM | CSc1cnc(C(=O)Nc2ccc([C@@H]3CCCNC3)cc2)cn1 [Example 257, (S)-5-(Methylthio)-N-(4-(piperidin-3-yl)phenyl)pyrazine-2-carboxamide] | 
0.0044 µM | 0.146 µM | O=C(Nc1ccc(C2CNCCO2)cc1)c1ccc(N2CCCC2)nc1 (racemic) [Example 279, (RS)—N-(4-(Morpholin-2-yl)phenyl)-6-(pyrrolidin-1-yl)nicotinamide hydrochloride] | 
0.0026 µM | 0.0333 µM | Cc1ccc(C(=O)Nc2ccc(C3CCCNC3)cc2)cc1 (racemic) [Example 185, (RS)-4-Methyl-N-(4-(piperidin-3-yl)phenyl)benzamide hydrochloride] | 
0.0003 µM | 0.0003 µM | O=C(Nc1ccc(C2CCNC2)cc1)OCCCc1ccc(Cl)cc1 (racemic) [Example 128, (RS)-(4-Pyrrolidin-3-yl-phenyl)-carbamic acid 3-(4-chloro-phenyl)-propyl ester] | 
0.0608 µM | 0.199 µM | CC1(COc2ccc(C(=O)Nc3ccc(C4CNCCO4)cc3)cc2)COC1 (racemic) [Example 228, (RS)-4-((3-Methyloxetan-3-yl)methoxy)-N-(4-(morpholin-2-yl)phenyl)benzamide] | 
0.0014 µM | 0.0128 µM | O=C(Nc1ccc([C@@H]2CCCNC2)cc1)c1cc(Cl)nc(Cl)c1 [Example 281, (S)-2,6-Dichloro-N-(4-(piperidin-3-yl)phenyl)isonicotinamide hydrochloride] | 
0.116 µM | 1.55 µM | O=C(Nc1ccc(C2CNCCO2)cc1)c1ccc(N2CCOCC2)nc1 (racemic) [Example 241, (RS)—N-(4-(Morpholin-2-yl)phenyl)-6-morpholinonicotinamide hydrochloride] | 
0.0022 µM | 0.0014 µM | O=C(Nc1ccc(C2CCNC2)cc1)OCCc1cccc(C(F)(F)F)c1 (racemic) [Example 123, (RS)-(4-Pyrrolidin-3-yl-phenyl)-carbamic acid 2-(3-trifluoromethyl-phenyl)-ethyl ester] | 
0.0005 µM | 0.002 µM | O=C(Nc1ccc(C2CNCCO2)cc1)Nc1cccc(Cl)c1 (racemic) [Example 303, (RS)-1-(3-Chlorophenyl)-3-(4-(morpholin-2-yl)phenyl)urea hydrochloride] | 
0.0022 µM | 0.0135 µM | Cc1ccc(C(=O)Nc2ccc([C@@H]3CNCCO3)cc2)cc1 [Example 195, (R)-4-Methyl-N-(4-(morpholin-2-yl)phenyl)benzamide hydrochloride] | 
0.238 µM | 1.16 µM | O=C(Nc1ccc(C2CNCCO2)cc1)c1ccc(O)cc1 (racemic) [Example 199, (RS)-4-Hydroxy-N-(4-(morpholin-2-yl)phenyl)benzamide hydrochloride] | 
0.001 µM | 0.0011 µM | O=C(Nc1ccc(CC2CCNC2)cc1)c1ccc(Cl)cc1 (racemic) [Example 149, (RS)-4-Chloro-N-(4-pyrrolidin-3-ylmethyl-phenyl)-benzamide hydrochloride] | 
0.012 µM | 1.17 µM | CCOc1ccc(C(=O)Nc2ccc([C@@H]3CCCNC3)cc2)cn1 [Example 256, (S)-6-Ethoxy-N-(4-(piperidin-3-yl)phenyl)nicotinamide] | 

Continued, compound first:

SMILES | Ki (rat TAAR1; [1]) | Ki (mouse TAAR1; [2]) | also measured
O=C(Nc1ccc(C(=O)C2CCNC2)cc1)c1ccc(Cl)cc1 (racemic) [Example 136, (RS)-4-Chloro-N-[4-(pyrrolidine-3-carbonyl)-phenyl]-benzamide hydrochloride] |  |  | Ki (rat TAAR1): 0.0008 µM; Ki (mouse TAAR1): 0.153 µM
O=C(Nc1ccc(C2CCNC2)cc1)c1cccc(Cl)c1 (racemic) [Example 20, (RS)-3-Chloro-N-(4-pyrrolidin-3-yl-phenyl)-benzamide hydrochloride] | 0.0077 µM | 0.0005 µM | 
O=C(Nc1ccc(C2CCNC2)cc1)Nc1ccc(Cl)cc1Cl (racemic) [Example 7, (RS)-1-(2,4-Dichloro-phenyl)-3-(4-pyrrolidin-3-yl-phenyl)-urea hydrochloride] | 0.0036 µM | 0.0028 µM | 
O=C(Nc1ccc(C2CCNC2)cc1)Oc1ccc(F)cc1 (racemic) [Example 15, (RS)-(4-Pyrrolidin-3-yl-phenyl)-carbamic acid 4-fluoro-phenyl ester hydrochloride] |  |  | Ki (rat TAAR1): 0.0081 µM; Ki (mouse TAAR1): 0.0021 µM
O=C(COc1ccc(Cl)cc1)Nc1ccc([C@@H]2CCCNC2)cc1 [Example 235, (S)-2-(4-Chlorophenoxy)-N-(4-(piperidin-3-yl)phenyl)acetamide hydrochloride] | 0.0006 µM |  | Ki (mouse TAAR1; read-out: Ki (μM) mouse): 0.0334 µM
Cc1cc(C(=O)Nc2ccc([C@H]3CNCCO3)cc2)cc(Cl)n1 [Example 286, (S)-2-Chloro-6-methyl-N-(4-(morpholin-2-yl)phenyl)isonicotinamide hydrochloride] | 0.0044 µM |  | Ki (mouse TAAR1; read-out: Ki (μM) mouse): 0.0222 µM
O=C(Nc1ccc(C2CCCNC2)cc1)c1ccc(Cl)c(Cl)c1 (racemic) [Example 96, (RS)-3,4-Dichloro-N-(4-piperidin-3-yl-phenyl)-benzamide hydrochloride] | 0.0067 µM | 0.0016 µM | 
O=C(Nc1ccc([C@@H]2CNC[C@H]2O)cc1)c1ccc(Cl)cc1 (racemic) [Example 63, 4-Chloro-N-[4-((3RS,4SR)-4-hydroxy-pyrrolidin-3-yl)-phenyl]-benzamide hydrochloride] | 0.174 µM | 0.0837 µM | 
O=C(Nc1cccc(C2CNCCO2)c1)c1ccc(Cl)cc1 (racemic) [Example 72, (RS)-4-Chloro-N-(3-morpholin-2-yl-phenyl)-benzamide hydrochloride] | 0.107 µM | 0.507 µM | 
O=C(CCc1ccc(Cl)cc1)Nc1ccc(C2CCCNC2)cc1 (racemic) [Example 101, (RS)-3-(4-Chloro-phenyl)-N-(4-piperidin-3-yl-phenyl)-propionamide hydrochloride] | 0.0263 µM | 0.002 µM | 
O=C(Nc1ccc(C2CCCNC2)cc1)c1cccc(Cl)c1 (racemic) [Example 92, (RS)-3-Chloro-N-(4-piperidin-3-yl-phenyl)-benzamide hydrochloride] | 0.0238 µM | 0.0238 µM | 
O=C(Nc1ccc(CCC2CCCNC2)cc1)Nc1ccc(Cl)cn1 (racemic) [Example 115, (RS)-1-(5-Chloro-pyridin-2-yl)-3-[4-(2-piperidin-3-yl-ethyl)-phenyl]-urea hydrochloride] | 0.0118 µM | 0.32 µM | 
Cc1cccc(C(=O)Nc2ccc(C3CNCCO3)cc2)c1 (racemic) [Example 277, (RS)-3-Methyl-N-(4-(morpholin-2-yl)phenyl)benzamide hydrochloride] | 0.0036 µM |  | Ki (mouse TAAR1; read-out: Ki (μM) mouse): 0.0472 µM
O=C(Nc1ccc(C2CCNC2)cc1)c1ccc(C(F)(F)F)cn1 (racemic) [Example 139, (RS)-5-Trifluoromethyl-pyridine-2-carboxylic acid (4-pyrrolidin-3-yl-phenyl)-amide hydrochloride] | 0.0051 µM | 0.0158 µM | 
O=C(Nc1ccc(C2CCNC2)cc1)c1ccc2ccccc2n1 (racemic) [Example 84, (RS)-Quinoline-2-carboxylic acid (4-pyrrolidin-3-yl-phenyl)-amide hydrochloride] | 0.0381 µM | 0.008 µM | 
CCOc1cc(C(=O)Nc2ccc(C3CNCCO3)cc2)ccn1 (racemic) [Example 300, (RS)-2-Ethoxy-N-(4-(morpholin-2-yl)phenyl)isonicotinamide hydrochloride] | 0.002 µM | 0.0726 µM | 
C[C@H]1CO[C@@H](c2ccc(NC(=O)c3cccc(Cl)c3)cc2)CN1 [Example 322, 3-Chloro-N-[4-((2S,5S)-5-methyl-morpholin-2-yl)-phenyl]-benzamide hydrochloride] |  |  | Ki (rat TAAR1; read-out: Ki (μM) rat): 0.0017 µM; Ki (mouse TAAR1; read-out: Ki (μM) mouse): 0.0188 µM
CCOc1ccc(C(=O)Nc2ccc(C3CCCNC3)cc2)cc1 (racemic) [Example 97, (RS)-4-Ethoxy-N-(4-piperidin-3-yl-phenyl)-benzamide hydrochloride] | 0.0193 µM | 0.0038 µM | 
